Reference: patent US6472348B1, “Pyridone derivatives and herbicides” (Kumiai Chemical Industry Co., Ltd., priority 1996, dated 2002)

What was measured:
Type in all cases: in vivo
[1] = system: barnyardgrass (Ec); test: Test Example 1: herbicidal effects by paddy field soil treatment; details: 100 g of the active ingredient per 10 ares, 21st day after the application, index 0-5 of Table 47;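 note: grade of growth control; 5 = at least 90%; 4 = 70 to 90%; 3 = 50 to 70%; 2 = 30 to 50%; 1 = 10 to 30%; 0 = under 10%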
Method in brief: (§1)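 Greenhouse pot test in flooded paddy soil, dosed at 100 g a.i. per 10 ares; effect scored on day 21.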

[2] = system: bulrush (Sc); test: as above; details: 100 g of the active ingredient per 10 ares, 21st day after the application, index 0-5 of Table 47;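 note: grade of growth control; 5 = at least 90%; 4 = 70 to 90%; 3 = 50 to 70%; 2 = 30 to 50%; 1 = 10 to 30%; 0 = under 10%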
Method in brief: as §1

[3] = system: monochoria (Mo); test: as above; details: 100 g of the active ingredient per 10 ares, 21st day after the application, index 0-5 of Table 47;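 note: grade of growth control; 5 = at least 90%; 4 = 70 to 90%; 3 = 50 to 70%; 2 = 30 to 50%; 1 = 10 to 30%; 0 = under 10%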
Method in brief: as §1

[4] = system: Digitaria ciliaris (Di); test: Test Example 2: herbicidal effects by upland field soil treatment; details: 100 g of the active ingredient per 10 ares, evaluated on the 21st day after application;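 note: grade of growth control; 5 = at least 90%; 4 = 70 to 90%; 3 = 50 to 70%; 2 = 30 to 50%; 1 = 10 to 30%; 0 = under 10%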
From the text: (§2) (Test on Herbicidal Effects by Upland Field Soil Treatment)

[5] = system: barnyardgrass (Ec); test: as above; details: 100 g of the active ingredient per 10 ares, evaluated on the 21st day after application
From the text: as §2

[6] = system: common lambsquarters (Ch); test: as above; details: 100 g of the active ingredient per 10 ares, evaluated on the 21st day after application
From the text: as §2

[7] = system: pale smartweed (Po); test: as above; details: 100 g of the active ingredient per 10 ares, evaluated on the 21st day after application
From the text: as §2

[8] = system: rice flatsedge (Ci); test: as above; details: 100 g of the active ingredient per 10 ares, evaluated on the 21st day after application
From the text: as §2

[9] = system: slender amaranth (Am); test: as above; details: 100 g of the active ingredient per 10 ares, evaluated on the 21st day after application
From the text: as §2

[10] = system: Diaitaria ciliaris (Di); test: Test Example 3: herbicidal effects by upland field foliage treatment; parameters: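 grade of growth control; 5 = at least 90%; 4 = 70 to 90%; 3 = 50 to 70%; 2 = 30 to 50%; 1 = 10 to 30%; 0 = under 10%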
Method in brief: (§3)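 Pot culture: sand, 120 cm^2 surface; seeds sown, soil-covered, greenhouse 2 weeks. Foliage treatment applied at that stage. Herbicidal effect rated by standard scale, day 14 post-treatment.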

[11] = system: barnyardgrass (Ec); test: as above; parameters: scale not given here
Method in brief: as §3

[12] = system: common lambsquarters (Ch); test: as above; parameters: scale not given here
Method in brief: as §3

[13] = system: pale smartweed (Po); test: as above; parameters: scale not given here
Method in brief: as §3

[14] = system: rice flatsedge (Ci); test: as above; parameters: scale not given here
Method in brief: as §3

[15] = system: slender amaranth (Am); test: as above; parameters: scale not given here
Method in brief: as §3

[16] = system: cotton (Go); test: Test Example 4: crop plant selectivity by upland field soil treatment (cotton), phytotoxicity; parameters: scale not given here; details: dose 6.3 g ai/10 a, evaluated 21st day after application
Method in brief: (§4)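 Sand-filled pots, seeds sown then soil-covered; soil application; greenhouse culture; visual scoring of weed control and cotton injury at day 21 post-application.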

[17] = system: China jute (Ab); test: Test Example 4: crop plant selectivity by upland field soil treatment (cotton), herbicidal effects; parameters: scale not given here; details: dose 6.3 g ai/10 a, evaluated 21st day after application
Method in brief: as §4

[18] = system: common lambsquarters (Ch); test: as above; parameters: scale not given here; details: dose 6.3 g ai/10 a, evaluated 21st day after application
Method in brief: as §4

[19] = system: green foxtail (Se); test: as above; parameters: scale not given here; details: dose 6.3 g ai/10 a, evaluated 21st day after application
Method in brief: as §4

[20] = system: pale smartweed (Po); test: as above; parameters: scale not given here; details: dose 6.3 g ai/10 a, evaluated 21st day after application
Method in brief: as §4

[21] = system: slender amaranth (Am); test: as above; parameters: scale not given here; details: dose 6.3 g ai/10 a, evaluated 21st day after application
Method in brief: as §4

[22] = system: wheat (Tr); test: Test Example 5: crop plant selectivity by upland field soil treatment (wheat), phytotoxicity; parameters: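 grade of crop injury; 5 = at least 90%; 4 = 70 to 90%; 3 = 50 to 70%; 2 = 30 to 50%; 1 = 10 to 30%; 0 = under 10%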; details: dose 6.3 g ai/10a, 21st day after application
Method in brief: (§5)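 Pre-emergence soil treatment, sand-filled pots, seeds covered with soil; greenhouse culture; visual scoring of weed control and wheat injury at day 21 post-application.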

[23] = system: China jute (Ab); test: Test Example 5: crop plant selectivity by upland field soil treatment (wheat), herbicidal effects; parameters: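 grade of growth control; 5 = at least 90%; 4 = 70 to 90%; 3 = 50 to 70%; 2 = 30 to 50%; 1 = 10 to 30%; 0 = under 10%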; details: dose 6.3 g ai/10a, 21st day after application
Method in brief: as §5

[24] = system: common lambsquarters (Ch); test: as above; parameters: scale not given here; details: dose 6.3 g ai/10a, 21st day after application
Method in brief: as §5

[25] = system: green foxtail (Se); test: as above; parameters: scale not given here; details: dose 6.3 g ai/10a, 21st day after application
Method in brief: as §5

[26] = system: pale smartweed (Po); test: as above; parameters: scale not given here; details: dose 6.3 g ai/10a, 21st day after application
Method in brief: as §5

[27] = system: slender amaranth (Am); test: as above; parameters: scale not given here; details: dose 6.3 g ai/10a, 21st day after application
Method in brief: as §5

[28] = system: soybean (Gl); test: Test Example 6: crop plant selectivity by upland field soil treatment (soybean), phytotoxicity; parameters: scale not given here; details: dose 6.3 g ai/10a, 21st day after application
Method in brief: (§6)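 Pre-emergence soil treatment; sand-filled pots, seeds sown then soil-covered; greenhouse culture; visual rating of weed control and soybean injury on day 21 post-application per standard scale.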

[29] = system: China jute (Ab); test: Test Example 6: crop plant selectivity by upland field soil treatment (soybean), herbicidal effects; parameters: scale not given here; details: dose 6.3 g ai/10a, 21st day after application
Method in brief: as §6

[30] = system: common lambsquarters (Ch); test: as above; parameters: scale not given here; details: dose 6.3 g ai/10a, 21st day after application
Method in brief: as §6

[31] = system: green foxtail (Se); test: as above; parameters: scale not given here; details: dose 6.3 g ai/10a, 21st day after application
Method in brief: as §6

[32] = system: pale smartweed (Po); test: as above; parameters: scale not given here; details: dose 6.3 g ai/10a, 21st day after application
Method in brief: as §6

[33] = system: slender amaranth (Am); test: as above; parameters: scale not given here; details: dose 6.3 g ai/10a, 21st day after application
Method in brief: as §6

[34] = system: corn (Ze); test: Test Example 7: crop plant selectivity by upland field soil treatment (corn), phytotoxicity; parameters: scale not given here; details: dose 6.3 g ai/10a, 21st day after application
Procedure: (§7) (Test on Crop Plant Selectivity by Upland Field Soil Treatment)
(§8) In a plastic pot (surface area: 600 cm^2) filled with sand, corn (Ze), green foxtail (Se), pale smartweed (Po), slender amaranth (Am), common lambsquarters (Ch) and China jute (Ab) were sown and covered with soil. […] The plants were then cultured in a green house, and the evaluation of the herbicidal effects and phytotoxicity was conducted on the 21st day after the application in accordance with the standards as identified in Table 47.

[35] = system: China jute (Ab); test: Test Example 7: crop plant selectivity by upland field soil treatment (corn), herbicidal effects; parameters: scale not given here; details: dose 6.3 g ai/10a, 21st day after application
Procedure: as §7, §8

[36] = system: common lambsquarters (Ch); test: as above; parameters: scale not given here; details: dose 6.3 g ai/10a, 21st day after application
Procedure: as §7, §8

[37] = system: green foxtail (Se); test: as above; parameters: scale not given here; details: dose 6.3 g ai/10a, 21st day after application
Procedure: as §7, §8

[38] = system: pale smartweed (Po); test: as above; parameters: scale not given here; details: dose 6.3 g ai/10a, 21st day after application
Procedure: as §7, §8

[39] = system: slender amaranth (Am); test: as above; parameters: scale not given here; details: dose 6.3 g ai/10a, 21st day after application
Procedure: as §7, §8

[40] = 100 g of the active ingredient per 10 ares, evaluated on the 14th day after treatment
[41] = 100 g active ingredient per 10 ares, evaluated 14th day after treatment

Compound | Herbicidal effects Ec [1] | Herbicidal effects Sc [2] | Herbicidal effects Mo [3] | Herbicidal effects Di [4] | Herbicidal effects Ec [5] | Herbicidal effects Ch [6] | Herbicidal effects Po [7] | Herbicidal effects Ci [8] | Herbicidal effects Am [9] | Phytotoxicity Go [16] | Herbicidal effects Ab [17] | Herbicidal effects Ch [18] | Herbicidal effects Se [19] | Herbicidal effects Po [20] | Herbicidal effects Am [21] | Phytotoxicity Tr [22] | Herbicidal effects Ab [23] | Herbicidal effects Ch [24] | Herbicidal effects Se [25] | Herbicidal effects Po [26] | further results
Cn1c(C(F)(F)F)ccc(-c2cc(OCC(F)F)c(Cl)cc2F)c1=O [1-173] | 5 | 5 | 5 | 5 | 5 | 5 | 5 | 5 | 5 | 1 | 5 | 5 | 5 | 5 | 5 | 1 | 5 | 5 | 5 | 5 | Herbicidal effects Di [10, 40]: 5; Herbicidal effects Ec [11, 40]: 5; Herbicidal effects Ch [12, 40]: 5; Herbicidal effects Po [13, 40]: 5; Herbicidal effects Ci [14, 40]: 5; Herbicidal effects Am [15, 40]: 5; Herbicidal effects Am [27]: 5; Phytotoxicity Gl [28]: 1; Herbicidal effects Ab [29]: 5; Herbicidal effects Ch [30]: 5; Herbicidal effects Se [31]: 5; Herbicidal effects Po [32]: 5; Herbicidal effects Am [33]: 5; Phytotoxicity Ze [34]: 1; Herbicidal effects Ab [35]: 5; Herbicidal effects Ch [36]: 5; Herbicidal effects Se [37]: 5; Herbicidal effects Po [38]: 5; Herbicidal effects Am [39]: 5
COc1cc(Cl)cc(F)c1-c1ccc(C(F)(F)F)n(C)c1=O [1′-1] | 5 | 5 | 5 | 5 | 5 | 5 | 5 | 5 | 5 | 0 | 5 | 5 | 5 | 5 | 5 | 1 | 5 | 5 | 5 | 5 | Herbicidal effects Di [10, 41]: 5; Herbicidal effects Ec [11, 41]: 5; Herbicidal effects Ch [12, 41]: 5; Herbicidal effects Po [13, 41]: 5; Herbicidal effects Ci [14, 41]: 5; Herbicidal effects Am [15, 41]: 5; Herbicidal effects Am [27]: 5; Phytotoxicity Gl [28]: 1; Herbicidal effects Ab [29]: 5; Herbicidal effects Ch [30]: 5; Herbicidal effects Se [31]: 5; Herbicidal effects Po [32]: 5; Herbicidal effects Am [33]: 5; Phytotoxicity Ze [34]: 1; Herbicidal effects Ab [35]: 5; Herbicidal effects Ch [36]: 5; Herbicidal effects Se [37]: 5; Herbicidal effects Po [38]: 5; Herbicidal effects Am [39]: 5
C#CCOc1cc(Cl)cc(F)c1-c1ccc(C(F)(F)F)n(C)c1=O [1′-4] | 5 | 5 | 5 | 5 | 5 | 5 | 5 | 5 | 5 | 0 | 5 | 5 | 5 | 5 | 5 | 1 | 5 | 5 | 5 | 5 | Herbicidal effects Di [10, 41]: 5; Herbicidal effects Ec [11, 41]: 5; Herbicidal effects Ch [12, 41]: 5; Herbicidal effects Po [13, 41]: 5; Herbicidal effects Ci [14, 41]: 5; Herbicidal effects Am [15, 41]: 5; Herbicidal effects Am [27]: 5; Phytotoxicity Gl [28]: 1; Herbicidal effects Ab [29]: 5; Herbicidal effects Ch [30]: 5; Herbicidal effects Se [31]: 5; Herbicidal effects Po [32]: 5; Herbicidal effects Am [33]: 5; Phytotoxicity Ze [34]: 1; Herbicidal effects Ab [35]: 5; Herbicidal effects Ch [36]: 5; Herbicidal effects Se [37]: 5; Herbicidal effects Po [38]: 5; Herbicidal effects Am [39]: 5
CCCON=Cc1cc(-c2ccc(C(F)(F)F)n(C)c2=O)c(F)cc1Cl [Compound 1-188] | 5 | 5 | 5 | 5 | 5 | 5 | 5 | 5 | 5 | 0 | 5 | 5 | 5 | 5 | 5 | 1 | 5 | 5 | 5 | 5 | Herbicidal effects Di [10, 41]: 5; Herbicidal effects Ec [11, 41]: 5; Herbicidal effects Ch [12, 41]: 5; Herbicidal effects Po [13, 41]: 5; Herbicidal effects Ci [14, 41]: 5; Herbicidal effects Am [15, 41]: 5; Herbicidal effects Am [27]: 5; Phytotoxicity Gl [28]: 1; Herbicidal effects Ab [29]: 5; Herbicidal effects Ch [30]: 5; Herbicidal effects Se [31]: 5; Herbicidal effects Po [32]: 5; Herbicidal effects Am [33]: 5; Phytotoxicity Ze [34]: 0; Herbicidal effects Ab [35]: 5; Herbicidal effects Ch [36]: 5; Herbicidal effects Se [37]: 5; Herbicidal effects Po [38]: 5; Herbicidal effects Am [39]: 5
